pIC50: −log10 of the molar value.
Key:
Substance-P receptor [1] = target: Substance-P receptor (Rattus norvegicus, UniProt P14600); experiment: In vitro binding affinity against Tachykinin receptor 1 in rat whole forebrain membranes using [3H][Sar9Met(O2)]-SP binding assay; format: cell membranes, Membrane
Substance-P receptor [2] = target: Substance-P receptor (Cavia porcellus, UniProt P30547); experiment: In vitro binding affinity against Tachykinin receptor 1 in guinea pig ileum using organ bath assay; format: tissue-based
Substance-P receptor (Cavia porcellus, UniProt P30547), sequence (P30547 whole entry): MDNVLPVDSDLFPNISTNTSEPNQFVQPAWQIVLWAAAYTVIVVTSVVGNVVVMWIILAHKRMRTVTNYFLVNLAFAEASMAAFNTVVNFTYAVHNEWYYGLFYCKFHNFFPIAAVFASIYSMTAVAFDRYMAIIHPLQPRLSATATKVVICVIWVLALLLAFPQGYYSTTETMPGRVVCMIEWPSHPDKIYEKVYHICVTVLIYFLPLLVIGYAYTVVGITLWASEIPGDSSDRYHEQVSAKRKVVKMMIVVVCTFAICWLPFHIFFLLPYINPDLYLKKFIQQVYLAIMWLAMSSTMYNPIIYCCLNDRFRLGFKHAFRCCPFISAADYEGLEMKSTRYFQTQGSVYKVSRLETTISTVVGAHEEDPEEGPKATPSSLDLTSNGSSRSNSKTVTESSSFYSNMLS

B2 bradykinin receptor = target: T1, B2 bradykinin receptor (Rattus norvegicus, UniProt P25023); experiment: In vitro binding affinity against Bradykinin receptor B2 in rat NG 108-15 neuroblastoma-glioma hybrid cell membranes using [3H]BK binding assay
T1 sequence (P25023 whole entry): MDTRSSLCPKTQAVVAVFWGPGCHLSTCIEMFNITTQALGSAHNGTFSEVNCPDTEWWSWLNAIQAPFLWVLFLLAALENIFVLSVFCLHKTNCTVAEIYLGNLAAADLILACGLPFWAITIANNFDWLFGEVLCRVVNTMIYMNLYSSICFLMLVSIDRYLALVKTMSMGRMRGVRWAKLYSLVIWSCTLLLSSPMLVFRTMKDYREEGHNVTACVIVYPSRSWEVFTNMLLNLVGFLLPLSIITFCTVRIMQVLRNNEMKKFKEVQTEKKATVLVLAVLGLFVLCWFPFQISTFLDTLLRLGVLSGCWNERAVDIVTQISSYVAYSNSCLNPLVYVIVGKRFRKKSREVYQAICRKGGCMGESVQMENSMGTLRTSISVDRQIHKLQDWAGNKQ

[3] = target: T2, Gastrin/cholecystokinin type B receptor (Mus musculus, UniProt P56481); experiment: In vitro binding affinity against Cholecystokinin type B receptor in mouse cerebral cortical membranes using [125I]Tyr(SO3H)27]-CCK-8 binding assay; format: cell membranes
T2 sequence (P56481 whole entry): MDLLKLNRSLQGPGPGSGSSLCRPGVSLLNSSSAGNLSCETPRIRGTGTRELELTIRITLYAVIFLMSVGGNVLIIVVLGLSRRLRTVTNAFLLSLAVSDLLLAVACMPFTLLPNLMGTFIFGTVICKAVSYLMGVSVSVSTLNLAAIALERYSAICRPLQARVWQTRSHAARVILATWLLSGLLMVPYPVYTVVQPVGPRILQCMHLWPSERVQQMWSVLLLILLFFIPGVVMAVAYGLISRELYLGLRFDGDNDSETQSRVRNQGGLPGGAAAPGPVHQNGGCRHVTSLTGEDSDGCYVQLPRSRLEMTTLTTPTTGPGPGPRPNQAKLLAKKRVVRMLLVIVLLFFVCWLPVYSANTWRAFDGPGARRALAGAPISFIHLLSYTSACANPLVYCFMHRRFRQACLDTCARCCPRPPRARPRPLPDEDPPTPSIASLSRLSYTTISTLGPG

Substance-P receptor (Rattus norvegicus, UniProt P14600), sequence (P14600 whole entry): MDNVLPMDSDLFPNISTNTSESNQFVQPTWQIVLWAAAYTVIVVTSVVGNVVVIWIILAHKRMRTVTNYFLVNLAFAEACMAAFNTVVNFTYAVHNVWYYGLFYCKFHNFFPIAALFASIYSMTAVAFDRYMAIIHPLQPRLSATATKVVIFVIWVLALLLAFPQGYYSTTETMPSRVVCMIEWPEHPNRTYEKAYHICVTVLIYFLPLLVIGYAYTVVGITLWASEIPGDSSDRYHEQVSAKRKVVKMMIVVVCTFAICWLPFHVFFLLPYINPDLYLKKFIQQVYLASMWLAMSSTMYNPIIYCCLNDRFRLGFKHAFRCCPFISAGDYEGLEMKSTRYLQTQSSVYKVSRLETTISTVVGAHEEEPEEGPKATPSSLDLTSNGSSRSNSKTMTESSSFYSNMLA

Row | Structure (SMILES) | pIC50 (Substance-P receptor [1]) | pIC50 (Substance-P receptor [2]) | pIC50 (B2 bradykinin receptor) | pIC50 [3]
1 | O=C(O)CCCNS(=O)(=O)c1ccc(N/N=C(/S)NCCc2c[nH]c3ccccc23)c([N+](=O)[O-])c1 | – | – | < 4.00 | 4.96
2 | O=C(O)c1ccccc1NS(=O)(=O)c1ccc(N/N=C(/S)NCCc2c[nH]c3ccccc23)c([N+](=O)[O-])c1 | – | – | < 4.00 | 5.35
3 | O=C(O)CCN(Cc1ccccc1)S(=O)(=O)c1ccc(NNC(=S)NCCc2c[nH]c3ccccc23)c([N+](=O)[O-])c1 | – | – | < 4.00 | 6.29
4 | O=C(O)c1ccc(NC(=S)NNc2ccc(S(=O)(=O)NCCc3c[nH]c4ccccc34)cc2[N+](=O)[O-])cc1 | – | – | < 4.00 | 4.62
5 | O=C(O)CNS(=O)(=O)c1ccc(NNC(=S)NCCc2c[nH]c3ccccc23)c([N+](=O)[O-])c1 | – | – | < 4.00 | 4.34
6 | COc1ccccc1CN[C@H]1CCCN[C@H]1c1ccccc1 [CP-99994] | – | 8.54 | – | –
7 | O=C(O)CCNS(=O)(=O)c1ccc(N/N=C(/S)NCCc2c[nH]c3ccccc23)c([N+](=O)[O-])c1 | – | – | < 4.00 | 4.62
8 | CSCCNS(=O)(=O)c1ccc(N/N=C(\S)N2CCC[C@H]2C(=O)NCc2ccccc2)c([N+](=O)[O-])c1 | < 4.00 | – | < 4.00 | –
9 | O=C(O)CN(Cc1ccccc1)S(=O)(=O)c1ccc(NNC(=S)NCCc2c[nH]c3ccccc23)c([N+](=O)[O-])c1 | – | – | < 4.00 | 5.74
10 | CSCCNS(=O)(=O)c1ccc(N/N=C(\S)N2CCC[C@@H]2C(=O)NCc2ccccc2)c([N+](=O)[O-])c1 | < 4.00 | – | < 4.00 | –
11 | O=C(O)CN(CCc1ccccc1)S(=O)(=O)c1ccc(N/N=C(/S)NCCc2c[nH]c3ccccc23)c([N+](=O)[O-])c1 | – | – | < 4.00 | 5.22

Next, values leading:

Row | pIC50 (Substance-P receptor [1]) | pIC50 (Substance-P receptor [2]) | pIC50 (B2 bradykinin receptor) | pIC50 [3] | Structure (SMILES)
12 | < 4.00 | 5.64 | < 4.00 | – | O=C(NC(c1ccccc1)c1ccccc1)[C@H]1CCCN1/C(S)=N/Nc1ccccc1[N+](=O)[O-]
13 | – | – | < 4.00 | 4.51 | O=C(O)c1cccc(NC(=S)NNc2ccc(S(=O)(=O)NCCc3c[nH]c4ccccc34)cc2[N+](=O)[O-])c1
14 | – | 6.01 | < 4.00 | – | CSCCNS(=O)(=O)c1ccc(N/N=C(\S)N2CCC[C@H]2C(=O)NC(c2ccccc2)c2ccccc2)c([N+](=O)[O-])c1
15 | – | – | < 4.00 | 5.61 | O=C(O)CCCN(Cc1ccccc1)S(=O)(=O)c1ccc(N/N=C(/S)NCCc2c[nH]c3ccccc23)c([N+](=O)[O-])c1
16 | – | – | < 4.00 | 5.44 | O=C(O)c1cccc(NS(=O)(=O)c2ccc(NNC(=S)NCCc3c[nH]c4ccccc34)c([N+](=O)[O-])c2)c1
17 | – | – | < 4.00 | 5.22 | O=C(O)CN(CCCc1ccccc1)S(=O)(=O)c1ccc(N/N=C(/S)NCCc2c[nH]c3ccccc23)c([N+](=O)[O-])c1
18 | < 4.00 | 5.78 | < 4.00 | – | O=C(NC(c1ccccc1)c1ccccc1)[C@@H]1CCCN1/C(S)=N/Nc1ccccc1[N+](=O)[O-]
19 | – | – | < 4.00 | 5.40 | O=C(O)c1cccc(N(Cc2ccccc2)S(=O)(=O)c2ccc(NNC(=S)NCCc3c[nH]c4ccccc34)c([N+](=O)[O-])c2)c1
20 | – | 5.10 | < 4.00 | – | CSCCNS(=O)(=O)c1ccc(N/N=C(\S)N2CCC[C@@H]2C(=O)NC(c2ccccc2)c2ccccc2)c([N+](=O)[O-])c1
21 | – | – | < 4.00 | 5.00 | O=C(O)c1ccc(NS(=O)(=O)c2ccc(N/N=C(/S)NCCc3c[nH]c4ccccc34)c([N+](=O)[O-])c2)cc1
22 | – | – | 6.39 | 5.72 | O=C(O)CN(Cc1ccccc1)S(=O)(=O)c1ccc(N/N=C(/S)NC(c2ccccc2)c2ccccc2)c([N+](=O)[O-])c1

From ChEMBL document CHEMBL1134223, “Design of non-peptide CCK2 and NK1 peptidomimetics using 1-(2-nitrophenyl)thiosemicarbazide as a novel common scaffold” (Bioorg Med Chem Lett, 2001)
